# Assay results taken from ChEMBL document CHEMBL5120810, “Toporosides A and B, Cyclopentenyl-Containing ω-Glycosylated Fatty Acid Amides, and Toporosides C and D from the Northwestern Pacific Marine Sponge Stelodoryx toporoki” (2022).
# Test system: H9c2
# Experiment: Cardioprotective activity against TNF-alpha induced rat H9c2 cells assessed as increase in cell viability at 2.5 uM pretreated with TNF-alpha for 1 hr followed by compound addition measured after 48 hrs by MTT assay relative to control
# Assay type: functional
row,Structure (SMILES),Activity [%]
1,CO[C@@H](CC/C=C\CCCCC(=O)CCCCC(=O)CCCCCCCCCCO[C@@H]1O[C@H](C(=O)O)[C@@H](O)[C@H](O)[C@H]1O)C(=O)NCCc1ccc(O)c(O)c1,18
2,CO[C@@H](CC/C=C\CCCCC(=O)CCCCC(=O)CC/C=C\CCCCCCCCO[C@@H]1O[C@H](C(=O)O)[C@@H](O)[C@H](O)[C@H]1O)C(=O)NCCc1ccc(O)c(O)c1,25
3,CO[C@@H](CC/C=C\CCCCC(=O)C1=C(CC/C=C\CCCCCCCCO[C@@H]2O[C@H](C(=O)O)[C@@H](O)[C@H](O)[C@H]2O)CCC1)C(=O)NCCc1ccc(O)c(O)c1,23
